Experimental data reported in US20100056596A1, “RESISTANCE-REPELLENT RETROVIRAL PROTEASE INHIBITORS” (Sequoia Pharmaceuticals, priority 2004, published 2010).
Like-named read-outs stand apart in the source and are kept apart here.

What was measured:
[1] = target: T1, wild type HIV-1 protease (Human immunodeficiency virus type 1 group M subtype B, UniProt P04585); experiment: Ki against wild type (WT) HIV-1 protease; type: biochemical
T1 construct: over 45 of the 99 amino acids of the HIV protease monomer

[2] = target: HIV-1 protease Mutant 8 (Human immunodeficiency virus type 1, UniProt P04585); experiment: Ki against HIV-1 protease Mutant 8; type: biochemical
[3] = target: HIV-1 protease Mutant 9 (Human immunodeficiency virus type 1, UniProt P04585); experiment: Ki against HIV-1 protease Mutant 9; type: biochemical
[4] = test system: HIV-1 isolates, WT; experiment: In vitro drug sensitivity of HIV-1 laboratory isolates, WT; type: cell-based
Procedure: (§1) In Vitro Drug Sensitivity of HIV-1 Laboratory Isolates to PIs
(§2) The sensitivities of HIV-1 isolates against compounds of the invention were determined as previously described with minor modifications (Shiraska et al., Proc. Natl. Acad. Sci. USA, 92, 2398-2402 (1995)).

[5] = test system: HIV-1 isolates, Mutant 8; experiment: In vitro drug sensitivity of HIV-1 laboratory isolates, Mutant 8; type: cell-based
Procedure: as §1, §2

[6] = test system: HIV-1 isolates, Mutant 9; experiment: In vitro drug sensitivity of HIV-1 laboratory isolates, Mutant 9; type: cell-based
Procedure: as §1, §2

[7] = Human immunodeficiency virus 1, HIV-1 isolate WT
[8] = Human immunodeficiency virus 1, read-out: IC50 Mutant 8
[9] = Human immunodeficiency virus 1, read-out: IC50 Mutant 9

Row | Compound | Ki ([1]; wild type HIV-1 protease) | Ki ([2]; HIV-1 protease Mutant 8) | Ki ([3]; HIV-1 protease Mutant 9) | IC50 [4, 7] | IC50 [5, 8] | IC50 [6, 9] | Ki ([1]; WT) | Ki ([2]; Mutant 8) | Ki ([3]; Mutant 9) | IC50 ([4]; WT) | IC50 ([5]; Mutant 8, read-out: IC50 Mutant 8) | IC50 ([6]; Mutant 9, read-out: IC50 Mutant 9) | IC50 ([4]; Human immunodeficiency virus 1)
1 | CC(C)CN(CC(O)C(Cc1ccccc1)NC(=O)OC1COC2OCCC12)S(=O)(=O)c1ccc2onc(COCC(F)(F)F)c2c1 (stereo not drawn) [Compound 246] | < 0.1 nM | < 0.3 nM | 1.1 nM | 2.7 nM | 6.8 nM | 105 nM | – | – | – | – | – | – | –
2 | CC(C)CN(C[C@@H](O)[C@H](Cc1ccccc1)NC(=O)OC1COC2OCCC12)S(=O)(=O)c1ccc2oc(CBr)cc2c1 (stereo partly drawn) [Compound 104] | – | – | – | – | – | – | < 0.1 nM | < 0.3 nM | 0.41 nM | 8 nM | 41 nM | 230 nM | –
3 | Cc1coc2ccc(S(=O)(=O)N(CC(C)C)CC(O)C(Cc3ccccc3)NC(=O)OC3COC4OCCC34)cc12 (stereo not drawn) [Compound 103] | – | – | – | – | 35 nM | 300 nM | < 0.1 nM | < 0.3 nM | 0.48 nM | – | – | – | 3.7 nM
4 | CC(C)CN(CC(O)C(Cc1ccccc1)NC(=O)OC1COC2OCCC12)S(=O)(=O)c1ccc2onc(CN3CCOCC3)c2c1 (stereo not drawn) [Compound 239] | < 0.1 nM | < 0.3 nM | 3.7 nM | 3 nM | 25 nM | > 400 nM | – | – | – | – | – | – | –
5 | CC(C)CN(CC(O)C(Cc1ccccc1)NC(=O)OC1COC2OCCC12)S(=O)(=O)c1ccc2onc(CNC(=O)C(F)(F)C(F)(F)F)c2c1 (stereo not drawn) [Compound 245] | < 0.1 nM | < 0.3 nM | 0.63 nM | 8.4 nM | 30 nM | 190 nM | – | – | – | – | – | – | –
6 | CC(C)CN(CC(O)C(Cc1ccccc1)NC(=O)OC1COC2OCCC12)S(=O)(=O)c1ccc2onc(CO)c2c1 (stereo not drawn) [Compound 213] | < 0.1 nM | < 0.3 nM | 0.15 nM | 7 nM | 30 nM | 55 nM | – | – | – | – | – | – | –
7 | CC(C)CN(CC(O)C(Cc1ccccc1)NC(=O)OC1COC2OCCC12)S(=O)(=O)c1ccc2onc(CNCCNC(=O)OC(C)(C)C)c2c1 (stereo not drawn) [Compound 236] | < 0.1 nM | < 0.3 nM | 0.34 nM | 6 nM | 18 nM | 160 nM | – | – | – | – | – | – | –
8 | CCS(=O)(=O)NCc1noc2ccc(S(=O)(=O)N(CC(C)C)CC(O)C(Cc3ccccc3)NC(=O)OC3COC4OCCC34)cc12 (stereo not drawn) [Compound 223] | < 0.1 nM | < 0.3 nM | 0.26 nM | 9 nM | 11 nM | 60 nM | – | – | – | – | – | – | –
9 | CC(C)CN(CC(O)C(Cc1ccccc1)NC(=O)OC1COC2OCCC12)S(=O)(=O)c1ccc2onc(CNCCc3ccccn3)c2c1 (stereo not drawn) [Compound 224] | < 0.1 nM | < 0.3 nM | 0.22 nM | 15 nM | 30 nM | 100 nM | – | – | – | – | – | – | –
10 | CC(C)CN(CC(O)C(Cc1ccccc1)NC(=O)OC1COC2OCCC12)S(=O)(=O)c1ccc2occ(CNC(=O)C[S+]([O-])Cc3ccccc3)c2c1 (stereo not drawn) [Compound 120] | – | – | – | – | 31 nM | 150 nM | < 0.1 nM | < 0.3 nM | 0.22 nM | – | – | – | 20 nM
11 | CC(C)CN(CC(O)C(Cc1ccccc1)NC(=O)OC1COC2OCCC12)S(=O)(=O)c1ccc2onc(COC(=O)C(C)(C)C)c2c1 (stereo not drawn) [Compound 218] | < 0.1 nM | < 0.3 nM | 2 nM | 11 nM | 18 nM | 80 nM | – | – | – | – | – | – | –
12 | CC(C)CN(CC(O)C(Cc1ccccc1)NC(=O)OC1COC2OCCC12)S(=O)(=O)c1ccc2onc(CNCCCN3CCCC3=O)c2c1 (stereo not drawn) [Compound 237] | < 0.1 nM | < 0.3 nM | 0.27 nM | 31 nM | 41 nM | 85 nM | – | – | – | – | – | – | –
13 | CCCCNCc1noc2ccc(S(=O)(=O)N(CC(C)C)CC(O)C(Cc3ccccc3)NC(=O)OC3COC4OCCC34)cc12 (stereo not drawn) [Compound 231] | < 0.1 nM | < 0.3 nM | 0.29 nM | 4.3 nM | 23 nM | 60 nM | – | – | – | – | – | – | –
14 | CCOC(=O)NCc1noc2ccc(S(=O)(=O)N(CC(C)C)CC(O)C(Cc3ccccc3)NC(=O)OC3COC4OCCC34)cc12 (stereo not drawn) [Compound 217] | < 0.1 nM | < 0.3 nM | < 0.1 nM | 2.3 nM | 30 nM | 20 nM | – | – | – | – | – | – | –
